# Several values for one entry are separate records, joined by “and”; a condition that tells them apart may be missing. Equal values may be shown once.
# What was measured:
# Leishmania donovani = experiment: Leishmania intramacrophage assay; assay type: functional, organism-based; settings: for IC50: Leishmania donovani
# Plasmodium falciparum = experiment: Calibr Malaria Delayed Death Assay SOP; assay type: functional, organism-based; settings: for IC50: Plasmodium falciparum
# [1] = microbe, parasite or virus in culture; settings: Mycobacterium tuberculosis, 96 h, read-out: pIC50 (converted)
# [2] = microbe, parasite or virus in culture; settings: Mycobacterium tuberculosis, 72 h, read-out: pIC50 (converted)
# Schistosoma mansoni = experiment: High throughput screening of compounds against Schistosoma mansoni motility; assay type: functional; set-up: dose or concentration left out as unconfirmed
# [3] = In vitro enzyme assay to detect hydrolysis of chlorophenol red-beta-D-[…] directly proportional to the number of Toxoplasma stably expressing beta-galactosidase; assay type: functional, organism-based, Toxoplasma gondii; settings: for IC50: Toxoplasma gondii
# Histidine--tRNA ligase = molecular target: T1, Histidine--tRNA ligase (Leishmania infantum, UniProt A4I591); experiment: Leishmania infantum Histidine tRNA synthetase (LdHisRS); assay type: functional
# T1 sequence (A4I591 whole entry): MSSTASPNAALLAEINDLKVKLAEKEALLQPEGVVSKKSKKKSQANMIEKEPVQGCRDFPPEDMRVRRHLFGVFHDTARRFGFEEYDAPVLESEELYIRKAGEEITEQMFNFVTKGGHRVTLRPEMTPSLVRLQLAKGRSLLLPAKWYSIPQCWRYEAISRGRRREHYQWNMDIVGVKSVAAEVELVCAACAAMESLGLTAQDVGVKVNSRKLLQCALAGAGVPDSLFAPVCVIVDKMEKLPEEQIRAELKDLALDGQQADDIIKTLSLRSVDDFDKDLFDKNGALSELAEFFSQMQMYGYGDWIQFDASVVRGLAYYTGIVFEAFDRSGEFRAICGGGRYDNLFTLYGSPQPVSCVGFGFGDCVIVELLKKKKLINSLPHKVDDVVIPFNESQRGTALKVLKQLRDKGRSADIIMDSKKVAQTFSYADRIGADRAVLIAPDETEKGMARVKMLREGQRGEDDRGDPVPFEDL
# [4] = molecular target: T2, Coenzyme A biosynthesis bifunctional protein CoaBC (Mycobacterium tuberculosis (strain ATCC 25618 / H37Rv), UniProt P9WNZ1); experiment: Biomol Green assay for MtCoaBC inhibitor, OD650 read; assay type: functional
# T2 sequence (P9WNZ1 whole entry): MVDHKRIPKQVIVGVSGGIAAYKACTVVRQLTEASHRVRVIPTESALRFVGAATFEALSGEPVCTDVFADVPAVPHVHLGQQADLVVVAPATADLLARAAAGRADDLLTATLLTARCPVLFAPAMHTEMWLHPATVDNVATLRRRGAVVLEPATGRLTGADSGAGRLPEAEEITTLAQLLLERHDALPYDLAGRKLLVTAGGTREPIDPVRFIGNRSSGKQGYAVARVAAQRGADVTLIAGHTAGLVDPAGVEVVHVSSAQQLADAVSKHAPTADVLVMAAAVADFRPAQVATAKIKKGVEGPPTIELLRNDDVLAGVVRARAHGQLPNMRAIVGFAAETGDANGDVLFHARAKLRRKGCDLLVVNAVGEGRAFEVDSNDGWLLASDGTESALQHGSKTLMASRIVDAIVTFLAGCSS
Structure (SMILES),pIC50 (Leishmania donovani),IC50 (Leishmania donovani) [µM],pIC50 (Plasmodium falciparum),IC50 (Plasmodium falciparum) [nM],further results
CN1CCC(N(Cc2ccco2)S(=O)(=O)c2ccc(Br)cc2Cl)CC1,4.643,20.9,6.36,473,
CN1CCN(CC(NCc2ccc(F)c(F)c2)c2ccccc2)CC1 (configuration not stated),,11.3,6.278,618,IC50 [1]: > 50.1 µM; IC50 [2]: 17.1 µM
COc1cccc(CNC(CN2CCN(C)CC2)c2ccccc2)c1 (configuration not stated),4.672,22,6.596,308,
Cc1ccc(CNC(CN2CCN(C)CC2)c2ccccc2)cc1 (configuration not stated),5.055,12.8,6.589,247,
Cc1cccc(CNC(CN2CCN(C)CC2)c2ccccc2)c1 (configuration not stated),5.046,6.36,6.605,185,
CCSc1cc(C(=O)NCc2ccccc2O)ccn1,,> 50.1,,,Percent Effect (Schistosoma mansoni): -44.04%
Cc1cc(N2CCC(N(C)C(=O)c3ccccc3)CC2)nc(C)n1,,> 50.1,,,Percent Effect (Schistosoma mansoni): -7.781%
Clc1ccccc1C1(c2ccnc(C3CCCC3)n2)CCNCC1,,6.68,6.419,399,pIC50 [3]: 5.147; IC50 [3]: 13 µM
Clc1ccccc1C1(c2ccnc(C3CC3)n2)CCNCC1,,23.9,6.224,536,pIC50 [3]: 4.703; IC50 [3]: 15.4 µM
Cc1ccc2[nH]c(-c3cn(C4CCNCC4)nn3)nc2c1C,4.614,20.4,6.454,325,
Nc1nccc(N2CCC(c3cc(Cc4ccccc4)n[nH]3)CC2)n1,4.363,42,,,pIC50 [3]: 4.837; IC50 [3]: 20.2 µM
Cc1ccc(-c2cc(CNc3ncnc4c3CCNCC4)no2)cc1,4.865,8.55,,,IC50 [3]: 9.58 µM
Cc1nc(CCN)cc(N2CCC(O)(c3ccc(Cl)cc3)CC2)n1,,> 50.1,,,IC50 (Histidine--tRNA ligase): 46.4 µM and 42.8 µM
CC(C)c1nccc(C2(c3ccccc3Cl)CCNCC2)n1,,26.3,6.087,789,
Cc1nc(CCN)cc(N2CCOc3ccc(Cl)cc3C2)n1,4.773,11.2,,,IC50 (Histidine--tRNA ligase): 41.7 µM and 34.2 µM
Cc1cc2nc(-c3cn(C4CCNCC4)nn3)[nH]c2cc1C,4.64,21.2,6.549,273,
CCN(CCN(C)C)c1nc(CCN)nc2sc(C)c(C)c12,,> 50.1,5.974,1210,IC50 (Histidine--tRNA ligase): 49.3 µM and 36.3 µM

Structure (SMILES),pIC50 (Leishmania donovani),IC50 (Leishmania donovani) [µM],pIC50 (Plasmodium falciparum),IC50 (Plasmodium falciparum) [nM],further results
O=C(C1CNCCO1)N1CCCC(c2ccccc2)(c2ccccc2)C1 (configuration not stated),4.781,11.6,6.124,975,
Cc1ccc(-c2nc(CNC(C)CCO)[nH]c2-c2ccccn2)cc1 (configuration not stated),4.821 and 4.459,,5.824,1250,
CCOC(=O)N1CCN(c2nc(CCN)nc3sc(C)c(C)c23)CC1,,> 50.1,5.898,1120,IC50 (Histidine--tRNA ligase): 21.8 µM and 19.6 µM
Cc1c(C(=O)N2CCC(N3CCCCC3)CC2)n(C)c2ccc(Cl)cc12,4.818,13.5,6.009,1070,
CC(C)(C)c1nccc(C2(c3ccccc3Cl)CCNCC2)n1,,7.19,6.385,667,pIC50 [3]: 4.939 and 5.272
C1Cc2nc(CCNc3nc(C4CC4)nc4c3CCNCC4)sc2C1,5.261 and 5.322,5.69,,,IC50 [3]: 12.6 µM
Clc1ccccc1C1(c2ccnc(CC3CC3)n2)CCNCC1,4.801 and 4.355,,6.68,268,
Cc1cc(N2CCCCCC2)n2nc(C)c(C)c2n1,,> 50.1,,,Percent Effect (Schistosoma mansoni): -21.59%
Clc1ccccc1C1(c2ccnc(-c3ccncc3)n2)CCNCC1,4.623,18.6,6.636,264,
CC(O)CN1CCC(CNCc2cccc(OC(F)(F)F)c2)CC1 (configuration not stated),4.85,16.8,6.17,909,
CC(O)CN1CCC(CNCc2ccc(OC(F)(F)F)cc2)CC1 (configuration not stated),5.001,9.27,5.989,959,
Cc1nccn1CCCn1cncc1-c1ccc2c(c1)CC(C)N2C (configuration not stated),,> 50.1,,,IC50 (Histidine--tRNA ligase): 20.5 µM and 22.8 µM
Cc1ccc(CN2CCC3(CC2)C(=O)Nc2ccccc23)s1,,,,,IC50 [4]: > 30.2 µM
O=C([C@H]1C[C@@H]2CCN(c3cccc(F)c3)C[C@H]2O1)N1CCCC1,,,,,IC50 [4]: > 30.2 µM
Cc1nnc(N2C[C@@H](OCC3CCCC3)[C@H]3OCCC[C@H]32)s1,,,,,IC50 [4]: > 30.2 µM
Cc1cncc(C(=O)N2CCO[C@H]3[C@H](OCCN(C)C)CC[C@@H]32)c1,,,,,IC50 [4]: > 30.2 µM

# From ChEMBL document CHEMBL3988442, “University of Dundee, Small-Polar-MMV Screening Library” (2021)
